pIC50: −log10 of the molar value. Like-named read-outs stand apart in the source and are kept apart here.
What was measured:
EP300 (P300(1048-1664)) = target: T1, EP300 (P300(1048-1664)) (Homo sapiens, UniProt Q09472); assay: Biochemical assay for EP300, SAMDI; settings: EP300, SAMDI; read-out: EP300 Biochemistry IC50
T1 construct: P300(1048-1664)
T1 sequence (Q09472 1048-1664): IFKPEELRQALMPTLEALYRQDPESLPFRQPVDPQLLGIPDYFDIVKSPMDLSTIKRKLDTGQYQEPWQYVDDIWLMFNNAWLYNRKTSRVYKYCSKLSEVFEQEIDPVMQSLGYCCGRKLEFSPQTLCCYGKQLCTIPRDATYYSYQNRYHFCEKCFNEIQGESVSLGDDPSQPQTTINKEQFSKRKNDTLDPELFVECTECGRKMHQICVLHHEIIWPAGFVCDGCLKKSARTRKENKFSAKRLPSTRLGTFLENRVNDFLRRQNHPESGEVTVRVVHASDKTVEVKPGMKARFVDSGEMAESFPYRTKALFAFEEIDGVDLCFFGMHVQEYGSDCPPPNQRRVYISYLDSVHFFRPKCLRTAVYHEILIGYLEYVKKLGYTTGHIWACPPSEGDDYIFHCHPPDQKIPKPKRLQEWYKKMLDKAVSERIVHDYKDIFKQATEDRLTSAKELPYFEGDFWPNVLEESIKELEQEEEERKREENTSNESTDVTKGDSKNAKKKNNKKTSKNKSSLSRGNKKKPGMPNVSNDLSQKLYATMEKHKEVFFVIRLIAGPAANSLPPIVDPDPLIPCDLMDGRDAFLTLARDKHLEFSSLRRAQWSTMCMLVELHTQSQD
Description: The following example describes materials and methods relating to a biochemical assay for EP300. IC50 values (micromolar (μM)) are summarized in Table 1, Table 2, and Table 3 under the column labeled: “EP300 Biochemistry IC50 (micromolar).”

647V cells = assay: High throughput proliferation (HTP) assay; type: cell-based; settings: high throughput proliferation, read-out: CREBBP HTP IC50
Description: The following example describes methods and materials relating to a high throughput proliferation (HTP) assay. IC50 values (micromolar) are summarized in Table 1, Table 2, and Table 3 under the column labeled: “CREBBP HTP IC50 (micromolar).”
MATERIALS: 647V cell line, Dulbecco's MEM, penicillin-streptomycin, heat inactivated fetal bovine serum, D-PBS, and CellTiter-Glo were commercially available.
647V adherent cells were maintained in complete growth medium (Dulbecco's MEM supplemented with 15% v/v heat inactivated fetal bovine serum) and cultured at 37° C. under 5% CO2.
METHOD: Measurement of the effect of compound in High Throughput Proliferation (HTP) assays was performed as follows: Exponentially growing 647V cells were plated, in triplicate, in 384-well plates at the appropriate cell density in a final volume of 50 μl. Cells were incubated in the presence of increasing concentrations of compound. Viable cell number was determined at day 7 by addition of 35 μl CellTiter-Glo to each well of the plate, incubated in the dark for 30 minutes, and read on a PerkinElmer EnVision instrument to enumerate the number of cells.

CREBBP (1084-1701) = target: T2, CREBBP (1084-1701) (Homo sapiens, UniProt Q92793); assay: Biochemical assay for CREBBP (1084-1701), SAMDI; settings: SAMDI, read-out: CREBBP Biochemistry IC50
T2 construct: measured in the following biochemical assay using CREBBP (1084-1701); purchased
T2 sequence (Q92793 1084-1701): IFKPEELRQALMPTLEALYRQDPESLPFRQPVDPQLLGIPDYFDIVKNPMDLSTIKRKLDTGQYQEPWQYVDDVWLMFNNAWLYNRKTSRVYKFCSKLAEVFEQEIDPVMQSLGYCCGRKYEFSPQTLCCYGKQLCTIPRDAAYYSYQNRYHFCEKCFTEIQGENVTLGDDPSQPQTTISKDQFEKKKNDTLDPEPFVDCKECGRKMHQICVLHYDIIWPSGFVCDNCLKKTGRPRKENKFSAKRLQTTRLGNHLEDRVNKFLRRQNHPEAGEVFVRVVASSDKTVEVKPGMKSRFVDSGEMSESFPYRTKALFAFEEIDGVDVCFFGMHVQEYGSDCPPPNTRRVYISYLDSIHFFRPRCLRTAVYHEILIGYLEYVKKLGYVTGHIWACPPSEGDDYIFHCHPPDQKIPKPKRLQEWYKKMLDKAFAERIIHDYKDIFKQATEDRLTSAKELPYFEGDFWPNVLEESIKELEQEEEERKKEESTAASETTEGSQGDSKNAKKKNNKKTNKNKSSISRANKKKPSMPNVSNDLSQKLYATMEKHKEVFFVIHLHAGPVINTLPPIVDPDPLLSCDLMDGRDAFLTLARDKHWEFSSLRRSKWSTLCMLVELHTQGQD
How it was run: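 CREBBP (1084-1701) preincubated with compound 30 min at RT, then substrate mix (biotin-H3 11-25 K14R/K23R peptide, acetyl-CoA) added for 30 min at RT. Reaction stopped with formic acid, neutralised with sodium bicarbonate. Peptide acetylation read by SAMDI mass spectrometry to derive IC50.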

[1] = test system: H3K18Ac in HB-CLS-2 cells; assay: H3K18AC in-cell western (ICW) assay; type: cell-based; settings: H3K18Ac in-cell western, read-out: CREBBP ICW IC50
How it was run: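 HB-CLS-2 cells seeded 16–24 hours before 2 hr compound treatment at 37° C, 5% CO2, then methanol-fixed. H3K18Ac detected with rabbit monoclonal primary (overnight, 4° C) and 800CW anti-rabbit secondary; DRAQ5 stained DNA. Plates imaged at 700 and 800 nm for integrated intensity; IC50 in μM.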

[2] = Homo sapiens, 647-V, 647V cells

SMILES	pIC50 (EP300 (P300(1048-1664)))	pIC50 (CREBBP (1084-1701))	pIC50 [1]	pIC50 ([1]; HB-CLS-2 cells)	pIC50 (647V cells; Homo sapiens, 647-V)	pIC50 (647V cells)	pIC50 (647V cells; 647V cells)	pIC50 (647V cells; [2])
CCn1ncc(CN(C)C(=O)c2nc(-c3cc4[nH]cnc4cc3C)nc3ccc(Cl)cc23)c1C [Compound 17]	6.92	7.22	6.77	–	6.89	–	–	–
CCn1ncc(CN(C)C(=O)c2nc(-c3ccc(OCCCN(C)C(=O)OC(C)(C)C)c(C)c3)nc3ccc(Cl)cc23)c1C [Compound 183]	4.38	4.74	–	–	–	5.06	–	–
CCn1ncc(CN(C)C(=O)c2nc(-c3ccn(CCCN4CCCC4)n3)nc3ccc(Cl)cc23)c1C [Compound 184]	3.79	–	–	–	–	4.82	–	–
CCn1ncc(CN(C)C(=O)c2nc(N3CCn4ncnc4C3)nc3ccc(Cl)cc23)c1C [Compound 190]	3.99	–	4.70	–	4.70	–	–	–
CCn1ncc(CN(C)C(=O)c2nc(-c3cccc(Cl)c3)nc3cc(N4CCOCC4)c(Cl)cc23)c1C [Compound 200]	3.90	3.72	–	4.70	–	–	–	–
CCn1ncc(CN(C)C(=O)c2nc(N3CCNCC3)nc3ccc(Cl)cc23)c1C [Compound 202]	3.76	–	–	4.70	–	–	–	–
CCn1ncc(CN(C)C(=O)c2nc(-c3ccccc3Cl)nc3c(C#N)cccc23)c1C [Compound 211]	4.77	4.49	–	–	–	–	4.82	–
CCn1ncc(CN(C)C(=O)c2nc(-c3cc(C(=O)NC)on3)nc3ccc(Cl)cc23)c1C [Compound 215]	4.39	–	–	4.70	–	–	–	–
CCn1ncc(CN(C)C(=O)c2nc(-c3cn(CCNC)cn3)nc3ccc(Cl)cc23)c1C [Compound 228]	3.85	–	–	4.70	–	–	–	4.70
Cc1c(CN(C)C(=O)c2nc(-c3cc(Cl)cc(CNC4CCCCC4)c3)nc3ccc(Cl)cc23)cnn1CO [Compound 236]	4.89	–	–	4.70	–	–	–	–
CCn1ncc(CN(C)C(=O)c2nc(-c3cnc(CNC(C)=O)n3C)nc3ccc(Cl)cc23)c1C [Compound 237]	4.30	–	–	–	–	–	–	–
CCn1ncc(CN(C)C(=O)c2nc(-c3cn(CCCNC)cn3)nc3ccc(Cl)cc23)c1C [Compound 247]	3.80	–	–	4.70	–	–	–	4.70
Cc1n[nH]c(C)c1CN(C)C(=O)c1nc(-c2cccc(Cl)c2)nc2ccc(Cl)cc12 [Compound 248]	3.94	–	–	4.70	–	–	–	4.72
CCn1ncc(CN(C)C(=O)c2cc(-c3cnn[nH]3)nc3ccc(Cl)cc23)c1C [Compound 307]	5.10	–	–	–	–	–	–	–
CCn1ncc(CN(C)C(=O)c2nc(-c3cc(C(=O)NC)nn3C)nc3ccc(P(C)(C)=O)cc23)c1C [Compound 393]	4.30	4.30	–	–	–	–	5.07	–
CCn1ncc(CN(C)C(=O)c2cc(-c3cc(C)nc(C)n3)nc3ccc(Cl)cc23)c1C [Compound 411]	4.30	4.30	–	–	–	–	–	–
CCn1ncc(CN(C)C(=O)c2nc(-c3cc(C)c4cn[nH]c4c3)nc3ccc(Cl)cc23)c1C [Compound 412]	6.89	–	–	6.60	–	–	–	6.82
CCn1ncc(CN(C)C(=O)c2nc(-c3ccc(OCCNC(=O)C(C)C)c(Cl)c3)nc3ccc(Cl)cc23)c1C [Compound 416]	6.74	–	–	6.40	–	–	–	6.40

Molecules with a higher pIC50 (EP300 (P300(1048-1664))), results first:

pIC50 (EP300 (P300(1048-1664)))	pIC50 (CREBBP (1084-1701))	pIC50 [1]	pIC50 ([1]; HB-CLS-2 cells)	SMILES	pIC50 (647V cells; Homo sapiens, 647-V)	pIC50 (647V cells)	pIC50 (647V cells; 647V cells)	pIC50 (647V cells; [2])
8.68	8.48	7.57	–	CCn1ncc(CN(C)C(=O)c2nc(-c3cc4c(C)[nH]nc4cc3Cl)nc3ccc(Cl)cc23)c1C [Compound 1]	7.70	–	–	–
8.30	7.66	7.47	–	CCn1ncc(CN(C)C(=O)c2nc(-c3ccc(OCCCNC)c(C)c3Cl)nc3ccc(Cl)cc23)c1C [Compound 2]	7.77	–	–	–
8.43	7.92	7.24	–	CCn1ncc(CN(C)C(=O)c2nc(-c3cc(Cl)c4nc[nH]c4c3)nc3ccc(COC)cc23)c1C [Compound 4]	7.43	–	–	–
7.96	7.80	7.22	–	CCn1ncc(CN(C)C(=O)c2nc(-c3cc(NCCNC)cc(OC)c3)nc3ccc(Cl)cc23)c1C [Compound 5]	7.46	–	–	–
8.28	8.02	7.11	–	CCn1ncc(CN(C)C(=O)c2nc(-c3cc4n[nH]cc4cc3Cl)nc3ccc(Cl)cc23)c1C [Compound 7]	7.18	–	–	–
7.59	7.48	7.11	–	CCn1ncc(CN(C)C(=O)c2nc(-c3cc(C)nc(NCCNC)c3)nc3ccc(Cl)cc23)c1C [Compound 8]	7.38	–	–	–
7.96	7.82	7.05	–	CCn1ncc(CN(C)C(=O)c2nc(-c3cc(C#N)cc(NCCNC)c3)nc3ccc(Cl)cc23)c1C [Compound 9]	7.29	–	–	–
8.08	7.66	7.03	–	CCn1ncc(CN(C)C(=O)c2nc(-c3cc4[nH]ncc4cc3C)nc3ccc(Cl)cc23)c1C [Compound 10]	7.11	–	–	–
8.46	7.89	6.96	–	CCn1ncc(CN(C)C(=O)c2nc(-c3cc(Cl)cc(NCCNC)c3)nc3ccc(Cl)cc23)c1C [Compound 12]	7.49	–	–	–
8.11	8.00	6.92	–	CCn1ncc(CN(C)C(=O)c2nc(-c3cc(C)cc(NC(=O)CNC)c3)nc3ccc(Cl)cc23)c1C [Compound 13]	6.96	–	–	–
8.54	7.85	6.85	–	CCn1ncc(CN(C)C(=O)c2nc(-c3cc(Cl)cc(NCCNC)c3)nc3ccc(Cl)cc23)c1C [Compound 14]	–	7.41	–	–
7.92	7.55	6.82	–	CCn1ncc(CN(C)C(=O)c2nc(-c3ccc(OCC(O)CN4CCCC4)cc3Cl)nc3ccc(Cl)cc23)c1C (stereo not shown) [Compound 15]	7.19	–	–	–
8.13	8.34	6.82	–	CCn1ncc(CN(C)C(=O)c2nc(-c3cc(N)cc(Cl)c3)nc3ccc(Cl)cc23)c1C [Compound 16]	6.80	–	–	–
8.00	7.64	6.77	–	CCn1ncc(CN(C)C(=O)c2nc(-c3cc(C(=O)NC)n(C)n3)nc3ccc(Cl)cc23)c1C [Compound 18]	6.66	–	–	–
8.00	7.57	6.74	–	CCn1ncc(CN(C)C(=O)c2nc(-c3ccc(OCC(O)CNC)cc3Cl)nc3ccc(Cl)cc23)c1C (stereo not shown) [Compound 20]	7.15	–	–	–
7.32	7.51	6.74	–	CCn1ncc(CN(C)C(=O)c2nc(-c3ccc(OCCNC)c(Cl)c3)nc3ccc(Cl)cc23)c1C [Compound 21]	6.92	–	–	–
7.85	7.85	6.74	–	CCn1ncc(CN(C)C(=O)c2nc(-c3cc(Cl)c4c[nH]nc4c3)nc3ccc(COC)cc23)c1C [Compound 22]	6.68	–	–	–
7.30	7.34	6.72	–	CCn1ncc(CN(C)C(=O)c2nc(-c3ccc(OCCNC)cc3Cl)nc3ccc(Cl)cc23)c1C [Compound 23]	7.09	–	–	–
7.14	6.83	6.47	–	CCn1ncc(CN(C)C(=O)c2nc(-c3cc(C(=O)NC)n(C)n3)nc3ccc(COC)cc23)c1C [Compound 630]	–	–	–	–

— US20220144812A1, “QUINOLINE DERIVATIVES AND THEIR USE FOR THE TREATMENT OF CANCER” (Epizyme, Inc., priority 2019, published 2022)
